Laboratory results from patent US11592451B2, “Method for the preselection of drugs for protein misfolding diseases” (betaSENSE GmbH, priority 2016, dated 2023).
“Also recorded” adds a separate entry of the source.

Tests used:
Tau protein = assay: ATR-FTIR sensor drug-screening assay: Tau protein captured from human CSF on antibody Tau-5 terminated germanium, amide I band monitored; type: biochemical; conditions: Tau extracted from CSF; methylene blue 50 μM, berberine 100 μM
Source text: The present invention is based on the detection of secondary structural changes induced by the potential drug by means of vibrational spectroscopy. […] Instead of a 70V (Bruker) we employed an 80V FTIR spectrometer (Bruker) to improve the signal to noise ratio of the measurements. As internal reflection element germanium crystal were chemically modified with NHS-silanes, which function as anchors for the covalent attachment of the desired antibodies. After blocking the surface with casein the surface is ready for capturing of the target protein (Tau or Aβ1-42). The Tau protein was directly extracted out of human CSF. […] The target protein was analyzed in the presence of the potential drug and the effect was monitored by the change in the amide I band. […]
IR-measurements were performed on a Vertex 80V spectrometer (Bruker Optics GmbH, Ettlingen, Germany) with liquid nitrogen cooled mercury-cadmium-telluride (MCT) detector. Double-sided interferograms were recorded in forward-backward interferometer movement at a 80 kHz data rate with a spectral resolution of 2 cm^−1, Blackman-Harris-3-Term-apodisation, Mertz-phase correction and 4 times zero filling. Reference spectra were recorded as an average of 1000, sample spectra of 200 interferograms. […]

Aβ1-42 = molecular target: T1, Aβ1-42 (Homo sapiens, UniProt P05067); assay: ATR-FTIR sensor drug-screening assay: synthetic Aβ1-42 captured on antibody A8978 terminated germanium, auto-induced fibrilization monitored by amide I band; type: biochemical
T1 construct: Amyloid-beta-Protein fragment 1-42; purchased Sigma-Aldrich A9810; host or cells: synthetic peptide
T1 sequence (P05067 672-713 limits assumed): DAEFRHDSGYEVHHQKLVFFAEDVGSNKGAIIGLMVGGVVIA
Source text: The present invention is based on the detection of secondary structural changes induced by the potential drug by means of vibrational spectroscopy. […] Instead of a 70V (Bruker) we employed an 80V FTIR spectrometer (Bruker) to improve the signal to noise ratio of the measurements. As internal reflection element germanium crystal were chemically modified with NHS-silanes, which function as anchors for the covalent attachment of the desired antibodies. After blocking the surface with casein the surface is ready for capturing of the target protein (Tau or Aβ1-42). […] The target protein was analyzed in the presence of the potential drug and the effect was monitored by the change in the amide I band. […] Another example is the study of the second important biomarker Aβ1-42. Since the developed sensor is universal, the antibody A8978 against the epitope 13-28 of Aβ1-42 could be applied for the analysis of the potential drug berberine. To monitor a potential effect of berberine the surface was loaded with synthetic Aβ1-42.
The human Aβ-peptide was purchased from Sigma-Aldrich (A9810, Amyloid-beta-Protein fragment 1-42).
IR-measurements were performed on a Vertex 80V spectrometer (Bruker Optics GmbH, Ettlingen, Germany) with liquid nitrogen cooled mercury-cadmium-telluride (MCT) detector. Double-sided interferograms were recorded in forward-backward interferometer movement at a 80 kHz data rate with a spectral resolution of 2 cm^−1, Blackman-Harris-3-Term-apodisation, Mertz-phase correction and 4 times zero filling. Reference spectra were recorded as an average of 1000, sample spectra of 200 interferograms. Recording reference single channel spectra of the blank sensor, sensor with 2-propanol, the silanized surface, the buffers, antibody or casein coated surface in equilibrium states enabled high sensitivity difference spectroscopy based on Lambert-Beer law (E=−log(I/I0). The absorbance of the state change is the negative decadic logarithm of the intensity relation before and after the change.
The antibody A8979 (Sigma-aldrich) was employed for capturing the Aβ-peptide (Nabers et al., Anal. Chem. 88(5):2755-62 doi:10.1021/acs.analchem.5b04286 (2016)). The Aβ-peptide (Aβ1-42, synthetic, Sigma-aldrich, Taufkrichen, Germany) was monomerized by incubation with hexafluoro-2-propanol as described elsewhere (Nabers et al., J. Biophotonics 9(3):224-34 doi:10.1002/jbio.201400145 (2016)).

memory function = conditions: rat models; cited from earlier work

For `COc1ccc2cc3[n+](cc2c1OC)CCc1cc2c(cc1-3)OCO2` [berberine, berberine chloride], the “effect on secondary structure distribution of Tau protein” value (Tau protein) was “did not change the secondary structure distribution; also recorded: no significant effect on the Tau protein”, the “shoulder of amide I band (β-sheet enriched isoforms) of Aβ1-42 in presence of drug” value (Aβ1-42; 100 μM berberine) was 1634 cm⁻¹ and the “shift of the amide I maximum of Aβ1-42 versus no drug” value (Aβ1-42; 100 μM berberine, 18 h) was 25 cm⁻¹. The “amide I maximum of Aβ1-42 in presence of drug” value (Aβ1-42; 100 μM berberine, 18 h total, without drug 1634 cm^−1) was 1659 cm⁻¹, the “effect on secondary structure distribution / fibrilization of Aβ1-42” value (Aβ1-42; synthetic Aβ1-42, drug 100 μM, same conditions for both drugs) was “shifts the distribution mainly to α-helix; also recorded: directly decelerates the aggregation process of Aβ1-42; also recorded: decelerates the auto-induced fibrilization of Aβ1-42” and the “effect on memory function” value (memory function) was “positive effect on the memory function”.
